≈ marks a conversion by molar mass, not a printed value. Read-outs that look alike come from different tables or passages of the source.
Experiments:
[1] = tested on: bacterial isolates (clinical isolates and ATCC quality control strains); assay: Minimum Inhibitory Concentrations (MICs) by broth microdilution (CLSI susceptibility testing); assay type: cell-based
Description: Bacterial isolates were cultivated from −70° C. frozen stocks by overnight passages at 35° C. in ambient air on Mueller-Hinton agar (Beckton Dickinson, Franklin Lakes, N.J.). Clinical isolates tested were obtained from various geographically diverse hospitals in the US and abroad (Focus Diagnostics, Herndon, Va. and JMI, North Liberty, Iowa). Quality control strains were from the American Type Culture Collection (ATCC; Rockville, Md.).
Minimum Inhibitory Concentrations (MICs) were determined by the broth microdilution method in accordance with the Clinical and Laboratory Standards Institute (CLSI) guidelines. In brief, organism suspensions were adjusted to a 0.5 McFarland standard to yield a final inoculum between 3×10^5 and 7×10^5 colony-forming units (CFU)/mL. Drug dilutions and inocula were made in sterile, cation adjusted Mueller-Hinton Broth (Beckton Dickinson). An inoculum volume of 100 μL was added to wells containing 100 μL of broth with 2-fold serial dilutions of drug. All inoculated microdilution trays were incubated in ambient air at 35° C. for 18-24 h. Following incubation, the lowest concentration of the drug that prevented visible growth (OD600 nm<0.05) was recorded as the MIC. Performance of the assay was monitored by the use of laboratory quality-control strains and levofloxacin, a compound with a defined MIC spectrum, in accordance with CLSI guidelines.

[2] = tested on: 3 P. aeruginosa strains (APAE001, APAE002, APAE006); assay: Protein binding: fold change in MIC in the presence of 2% HSA and 0.05% AGP, Geomean of 3 strains; assay type: cell-based, Pseudomonas aeruginosa; conditions: MIC in the presence of 2% HSA and 0.05% AGP divided by MIC in the absence; Geomean of 3 P. aeruginosa strains (APAE001, APAE002, APAE006)
Description: The effect of human serum albumin (HSA) and α-1-acid glycoprotein (AGP) from human plasma, which are known to nonspecifically bind to certain antibiotics and thereby reduce their activity (Banéres-Roquet et al. 2009 “Use of a Surface Plasmon Resonance Method to Investigate Antibiotic and Plasma Protein Interactions” Antimicrob. Agents and Chemother. 53(4):1528-1531), was assessed against 3 P. aeruginosa strains (APAE001, APAE002, APAE006). APAE001 is Pseudomonas aeruginosa ATCC27853; APAE002 is a wildtype lab strain of Pseudomonas aeruginosa known as PAM1020 or PA01. APAE006 is a strain of […]/PA01 with efflux deletions: delta mexAB-oprM::CM delta CD-oprJ::Gm delta mexEF-oprN::omega Hg. Lomovskaya, 0 et al. 1999. Use of a Genetic Approach To Evaluate the Consequences of Inhibition of Efflux Pumps in P aeruginosa. Antimicrob. Agents Chemother. 43: 1340-1346.
The standard procedure described in Susceptibility Testing was utilized with one adjustment, specifically 2% HSA and 0.05% AGP were added to the cation adjusted Mueller-Hinton Broth. The MIC for each strain of interest was then assessed in the presence and absence of HSA/AGP. Following MIC determination, the fold change in MIC was determined for each individual strain by dividing the MIC in the presence of HSA/AGP by the MIC in the absence of HSA/AGP. The protein binding Geomean was then calculated using these 3 values.

[3] = APAE1096 is a clinical isolate, broth microdilution, read-out: Minimum Inhibitory Concentrations (MICs) APAE1096
[4] = Pseudomonas aeruginosa, APAE002 is a wildtype lab strain of Pseudomonas aeruginosa known as PAM1020 or PA01, broth microdilution, read-out: Minimum Inhibitory Concentrations (MICs) APAE002
[5] = Pseudomonas aeruginosa, ATCC27853, APAE001 is Pseudomonas aeruginosa ATCC27853, broth microdilution, read-out: Minimum Inhibitory Concentrations (MICs) APAE001
[6] = Pseudomonas aeruginosa, ATCC27853, read-out: Minimum Inhibitory Concentrations (MICs) APAE001
[7] = Pseudomonas aeruginosa, read-out: Minimum Inhibitory Concentrations (MICs) APAE002
[8] = read-out: Minimum Inhibitory Concentrations (MICs) APAE1096

Compound	MIC [1, 3] [µg/mL]	MIC [1, 4] [µg/mL]	MIC [1, 5] [µg/mL]	Protein Binding PB (Geomean of fold change in MIC) [2]	MIC [1, 6] [µg/mL]	MIC [1, 7] [µg/mL]	MIC [1, 8] [µg/mL]
CC(C)(N)[C@H](NC(=O)c1ccc(C#CC#C[C@H]2[C@@H](CO)[C@H]2CO)cc1)C(=O)NO [Compound 23B, N—((S)-3-amino-1-(hydroxyamino)-3-methyl-1-oxobutan-2-yl)-4-(((1R,2R,3S)-2,3-bis(hydroxymethyl)cyclopropyl)buta-1,3-diynyl)benzamide]	8 to 16 (≈ 20 to 40.1 µM)	1 to 8 (≈ 2.5 to 20 µM)	1 to 8 (≈ 2.5 to 20 µM)	2.0	–	–	–
CC(C)(N)[C@H](NC(=O)c1ccc(C#CC#C[C@H]2CC2(CO)CO)cc1)C(=O)NO [Compound 24, N—((S)-3-amino-1-(hydroxyamino)-3-methyl-1-oxobutan-2-yl)-4-(((R)-2,2-bis(hydroxymethyl)cyclopropyl)buta-1,3-diynyl)benzamide]	1 to 8 (≈ 2.5 to 20 µM)	1 to 8 (≈ 2.5 to 20 µM)	1 to 8 (≈ 2.5 to 20 µM)	2.5	–	–	–
CC(C)(N)[C@H](NC(=O)c1ccc(C#CC#CC(O)C2CC2CO)cc1)C(=O)NO (stereo partly drawn) [Compound 26, N—((S)-3-amino-1-(hydroxyamino)-3-methyl-1-oxobutan-2-yl)-4-(5-hydroxy-5-(2-(hydroxymethyl)cyclopropyl)penta-1,3-diynyl)benzamide]	1 to 8 (≈ 2.5 to 20 µM)	< 1	< 1	6.4	–	–	–
CC(C)(N)[C@H](NC(=O)c1ccc(C#CC#C[C@]2(O)C[C@@H](CO)C2)cc1)C(=O)NO [Compound 27, N—((S)-3-amino-1-(hydroxyamino)-3-methyl-1-oxobutan-2-yl)-4-(((1S,3R)-1-hydroxy-3-(hydroxymethyl)cyclobutyl)buta-1,3-diynyl)benzamide]	1 to 8 (≈ 2.5 to 20 µM)	< 1	< 1	1.8	–	–	–
CC(C)(N)[C@H](NC(=O)c1ccc(C#CC#CC[C@]2(O)C[C@@H](CO)C2)cc1)C(=O)NO [Compound 28, N—((S)-3-amino-1-(hydroxyamino)-3-methyl-1-oxobutan-2-yl)-4-(5-((1S,3S)-1-hydroxy-3-(hydroxymethyl)cyclobutyl)penta-1,3-diyn-1-yl)benzamide]	> 16	1 to 8 (≈ 2.42 to 19.3 µM)	1 to 8 (≈ 2.42 to 19.3 µM)	1.3	–	–	–
CC(C)(N)[C@H](NC(=O)c1ccc(C#CC#C[C@H]2C[C@@](O)(CO)C2)cc1)C(=O)NO [Compound 29, N—((S)-3-amino-1-(hydroxyamino)-3-methyl-1-oxobutan-2-yl)-4-(((1R,3S)-3-hydroxy-3-(hydroxymethyl)cyclobutyl)buta-1,3-diynyl)benzamide]	1 to 8 (≈ 2.5 to 20 µM)	< 1	< 1	2.9	–	–	–
CC(C)(N)[C@H](NC(=O)c1ccc(C#CC#C[C@@H]2C[C@@H](O)[C@@H](O)C2)cc1)C(=O)NO [Compound 32, N—((S)-3-amino-1-(hydroxyamino)-3-methyl-1-oxobutan-2-yl)-4-(((1S,3R,4S)-3,4-dihydroxycyclopentyl)buta-1,3-diynyl)benzamide]	1 to 8 (≈ 2.5 to 20 µM)	< 1	< 1	5.5	–	–	–
CC(C)(N)[C@H](NC(=O)c1ccc(C#CC#C[C@H]2CC[C@@](O)(CO)CC2)cc1)C(=O)NO [Compound 33A, N—((S)-3-amino-1-(hydroxyamino)-3-methyl-1-oxobutan-2-yl)-4-(((1S,4R)-4-hydroxy-4-(hydroxymethyl)cyclohexyl)buta-1,3-diynyl)benzamide]	8 to 16 (≈ 18.7 to 37.4 µM)	< 1	1 to 8 (≈ 2.34 to 18.7 µM)	2.6	–	–	–
CC(C)(N)[C@H](NC(=O)c1ccc(C#CC#C[C@H]2CC[C@](O)(CO)CC2)cc1)C(=O)NO [Compound 33B, N—((S)-3-amino-1-(hydroxyamino)-3-methyl-1-oxobutan-2-yl)-4-(((1R,4S)-4-hydroxy-4-(hydroxymethyl)cyclohexyl)buta-1,3-diynyl)benzamide]	1 to 8 (≈ 2.34 to 18.7 µM)	1 to 8 (≈ 2.34 to 18.7 µM)	< 1	5.1	–	–	–
CC(C)(O)[C@H](NC(=O)c1ccc(C#CC#CCCO)cc1)C(=O)NO [Compound 34, (S)—N-(3-hydroxy-1-(hydroxyamino)-3-methyl-1-oxobutan-2-yl)-4-(6-hydroxyhexa-1,3-diynyl)benzamide]	1 to 8 (≈ 2.9 to 23.2 µM)	< 1	< 1	2.8	–	–	–
C[C@@H](N)[C@H](NC(=O)c1ccc(C#CC#CCCO)cc1)C(=O)NO [Compound 35, N-((2S,3R)-3-amino-1-(hydroxyamino)-1-oxobutan-2-yl)-4-(6-hydroxyhexa-1,3-diyn-1-yl)benzamide]	1 to 8 (≈ 3.04 to 24.3 µM)	< 1	< 1	2.0	–	–	–
CC(C)(N)[C@H](NC(=O)c1ccc(C#CC#CC[C@H](O)CO)cc1)C(=O)NO [Compound 36, N—((S)-3-amino-1-(hydroxyamino)-3-methyl-1-oxobutan-2-yl)-4-((S)-6,7-dihydroxyhepta-1,3-diyn-1-yl)benzamide]	–	–	–	2.3	< 1	< 1	1 to 8 (≈ 2.68 to 21.4 µM)
CC(C)(N)[C@H](NC(=O)c1ccc(C#CC#CC[C@@H](O)CO)cc1)C(=O)NO [Compound 37, N—((S)-3-amino-1-(hydroxyamino)-3-methyl-1-oxobutan-2-yl)-4-((R)-6,7-dihydroxyhepta-1,3-diyn-1-yl)benzamide]	–	–	–	1.4	1 to 8 (≈ 2.68 to 21.4 µM)	1 to 8 (≈ 2.68 to 21.4 µM)	1 to 8 (≈ 2.68 to 21.4 µM)
C[C@@H](O)[C@H](NC(=O)c1ccc(C#CC#CCCO)cc1)C(=O)NO [Compound 38, N-((2S,3R)-3-hydroxy-1-(hydroxyamino)-1-oxobutan-2-yl)-4-(6-hydroxyhexa-1,3-diyn-1-yl)benzamide]	1 to 8 (≈ 3.03 to 24.2 µM)	< 1	1 to 8 (≈ 3.03 to 24.2 µM)	2	–	–	–
CC(C#CC#Cc1ccc(C(=O)N[C@H](C(=O)NO)C(C)(C)N)cc1)CO (stereo partly drawn) [Compound 39, N—((S)-3-amino-1-(hydroxyamino)-3-methyl-1-oxobutan-2-yl)-4-(6-hydroxy-5-methylhexa-1,3-diyn-1-yl)benzamide]	1 to 8 (≈ 2.8 to 22.4 µM)	< 1	< 1	2.8	–	–	–
C[C@H](O)C#CC#Cc1ccc(C(=O)N[C@H](C(=O)NO)C(C)(C)O)cc1 [Compound 40, N—((S)-3-hydroxy-1-(hydroxyamino)-3-methyl-1-oxobutan-2-yl)-4-((S)-5-hydroxyhexa-1,3-diyn-1-yl)benzamide]	1 to 8 (≈ 2.9 to 23.2 µM)	< 1	1 to 8 (≈ 2.9 to 23.2 µM)	2.6	–	–	–
C[C@H](O)C#CC#Cc1ccc(C(=O)N[C@H](C(=O)NO)[C@@H](C)N)cc1 [Compound 41, N-((2S,3R)-3-amino-1-(hydroxyamino)-1-oxobutan-2-yl)-4-((S)-5-hydroxyhexa-1,3-diyn-1-yl)benzamide]	1 to 8 (≈ 3.04 to 24.3 µM)	< 1	< 1	2	–	–	–
C[C@H](O)C#CC#Cc1ccc(C(=O)N[C@H](C(=O)NO)[C@@H](C)O)cc1 [Compound 42, N-((2S,3R)-3-hydroxy-1-(hydroxyamino)-1-oxobutan-2-yl)-4-((S)-5-hydroxyhexa-1,3-diyn-1-yl)benzamide]	8 to 16 (≈ 24.2 to 48.4 µM)	1 to 8 (≈ 3.03 to 24.2 µM)	1 to 8 (≈ 3.03 to 24.2 µM)	2.6	–	–	–

Source: patent US20150175530A1, “ANTIBACTERIAL AGENTS” (priority 2012, published 2015)
